What was measured:
[1] = target: T1, HPK1 (Homo sapiens, UniProt Q92918); experiment: HPK1 kinase activity assay (ADP-Glo); settings: HPK1 Kinase activity IC50 (nM), 1 nM HPK1, 10 μM ATP, 0.1 μg/μL MBP
T1 sequence (Q92918 1-346 limits assumed): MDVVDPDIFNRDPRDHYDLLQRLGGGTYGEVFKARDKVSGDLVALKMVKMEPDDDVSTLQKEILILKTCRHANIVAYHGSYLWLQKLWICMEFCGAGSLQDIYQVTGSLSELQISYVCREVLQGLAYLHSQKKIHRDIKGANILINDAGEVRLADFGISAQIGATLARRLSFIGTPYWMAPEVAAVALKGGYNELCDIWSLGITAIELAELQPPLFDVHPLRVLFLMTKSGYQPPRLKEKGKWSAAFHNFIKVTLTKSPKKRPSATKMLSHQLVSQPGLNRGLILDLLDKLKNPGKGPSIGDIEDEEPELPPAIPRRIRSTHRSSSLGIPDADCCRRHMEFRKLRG

[2] = target: HPK1 (Homo sapiens, UniProt Q92918); experiment: SLP76 phosphorylation assay (intracellular HPK1 inhibitory activity, p-SLP76 Ser376 sandwich ELISA); settings: p-SLP76 IC50(nM), Jurkat, Clone E6-1 cells; 1 h compound pre-incubation, anti-CD3 beads stimulation 20 min; SLP76 phosphorylation at S376
Target sequence in this assay (Q92918 whole entry): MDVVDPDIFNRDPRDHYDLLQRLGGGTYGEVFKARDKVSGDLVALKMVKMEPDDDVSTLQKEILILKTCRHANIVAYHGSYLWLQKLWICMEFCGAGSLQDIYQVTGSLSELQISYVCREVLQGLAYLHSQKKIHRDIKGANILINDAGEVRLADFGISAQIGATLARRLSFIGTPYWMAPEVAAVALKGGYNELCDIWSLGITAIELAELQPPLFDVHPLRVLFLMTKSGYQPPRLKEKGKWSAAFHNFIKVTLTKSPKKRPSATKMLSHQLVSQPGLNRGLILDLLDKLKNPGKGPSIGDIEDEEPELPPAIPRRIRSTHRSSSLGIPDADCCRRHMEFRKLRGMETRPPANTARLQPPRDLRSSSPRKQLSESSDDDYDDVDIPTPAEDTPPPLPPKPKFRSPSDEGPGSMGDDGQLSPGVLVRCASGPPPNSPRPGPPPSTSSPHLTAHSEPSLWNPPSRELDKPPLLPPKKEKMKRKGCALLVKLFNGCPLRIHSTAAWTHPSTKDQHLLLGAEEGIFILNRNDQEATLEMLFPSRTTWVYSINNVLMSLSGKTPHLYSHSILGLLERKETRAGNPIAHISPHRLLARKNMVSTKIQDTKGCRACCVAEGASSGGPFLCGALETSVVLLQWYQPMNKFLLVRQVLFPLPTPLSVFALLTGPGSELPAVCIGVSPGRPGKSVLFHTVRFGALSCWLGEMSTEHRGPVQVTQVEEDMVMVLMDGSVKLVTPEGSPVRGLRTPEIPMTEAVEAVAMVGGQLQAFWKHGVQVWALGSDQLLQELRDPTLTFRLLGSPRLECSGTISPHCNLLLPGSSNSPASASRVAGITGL
Protocol: Intracellular HPK1 inhibitory activity was tested by the detection of SLP76 phosphorylation at S376.
Preparation of 1000× drug stock plate: a 1000× compound stock plate was prepared. […] The compound stock plate was sealed with a sealing film and stored in a −20° C. refrigerator for later use.
Preparation of Beads wash buffer: 0.1 mL FBS and 0.4 mL 0.5 M EDTA (with a final concentration of 2 mM) were added to 100 mL PBS and stored in a 4° C. refrigerator for later use.
100× Protease Inhibitor Cocktail in 1/20 total volume was added and stored on wet ice for later use. The buffer was ready to use.
Cell inoculation and dosing: the 1000× drug stock plate was taken and melted at room temperature in the dark. […] Jurkat cells in the logarithmic growth phase were selected and collected. […] The cells were inoculated into a 96-well plate (the volume was 90 μL per well), and a blank control well (without cells inoculation, and in which 110 μL of medium was added) was set. 10 μL of a drug-containing culture medium (10×) was transferred from the 10× drug intermediate plate into the 96-well cell plate (with a final concentration of 0.1% DMSO), and set a DMSO control group (in which 0.1% DMSO was added to the treated cells), a stimulated control group (in which 10 μL of culture medium was added to treat cells) and an unstimulated group (in which 10 μL of culture medium was added to treat cells). The wells were duplicated, gently patted, mixed, and then placed into a 5% CO2 incubator at 37° C. for 1 h.
Anti-CD3 beads stimulation: Dynabeads anti-human CD3 was taken, shaken, and mixed for 60 s. The required volume of beads was pipetted, and an equal volume or at least 1 mL of washing solution was added to wash once. Fresh complete medium was then added to resuspend and adjust the density of the beads to 4×10^7/mL, and the beads were placed on ice for later use. At the end of drug pre-incubation, the cell culture plate was taken out. 10 μL Dynabeads anti-human CD3 was added to each well to treat the cells, and 10 μL the culture medium was added to the unstimulated group. The cell culture plate was shaken to mix well at 2500 rpm for 10 s, and then placed into a 5% CO2 incubator at 37° C. and continued to culture for 20 min.
Detection of p-SLP76 protein level. PathScan Phospho-SLP-76 (Ser376) Sandwich ELISA Kit was applied to detect p-SLP76 protein level. At the end of the Anti-CD3 beads stimulation, the cell culture plate was removed from the incubator. […] After lysis, the cell culture plate was centrifuged at 4° C., 400×g for 5 min. 25 μL of sample and 75 μL of sample diluent were added to each well, and the plate was placed in a 5% CO2 incubator at 37° C. for 2 h. The subsequent detection steps were carried out following the kit instructions, and the absorbance (OD value) of each well was read at 450 nm by a microplate reader.

Compound | IC50 [1] [nM] | IC50 [2] [nM]
Cc1ccc(C(=O)N2CCc3cc(-c4cnc5[nH]cc(C)c5c4)cc([C@@H]4CCCN4)c3C2)nc1 [Compound Z439, (S)-(6-(3-methyl-1H-pyrrolo[2,3-b]pyridin-5-yl)-8-(pyrrolidin-2-yl)-3,4-dihydroisoquinolin-2(1H)-yl) (5-methylpyridin-2-yl)methanone] | 0.78 | 210
Cc1c[nH]c2ncc(-c3cc([C@H]4CCCN4)c4cnccc4c3)cc12 (single isomer, unassigned) [Compound Z3-2] | 3.37 | 604
O=C1OCc2ccc(-c3c[nH]c4ncc(-c5cc6c(c([C@@H]7CCCN7)c5)COCC6)cc34)cc21 [Compound Z365, (S)-6-(5-(8-(pyrrolidin-2-yl)isochroman-6-yl)-1H-pyrrolo[2,3-b]pyridin-3-yl)isobenzofuran-1(3H)-one] | 0.97 | 315
CC(=O)N1CCc2cc(-c3cnc4[nH]cc(C)c4c3)cc([C@H]3CCCN3)c2C1 (single isomer, unassigned) [Compound Z98-1] | 49.4 | 
Cc1c[nH]c2ncc(-c3cc([C@@H]4CCCN4)c4ccccc4n3)cc12 [Compound Z136, (S)-2-(3-methyl-1H-pyrrolo[2,3-b]pyridin-5-yl)-4-(pyrrolidin-2-yl)quinoline] | 31.2 | 7910
CCn1cc(C(=O)N2CCc3cc(-c4cnc5[nH]cc(C)c5c4)cc([C@@H]4CCCN4)c3C2)cn1 [Compound Z335, (S)-(1-ethyl-1H-pyrazol-4-yl)-[6-(3-methyl-1H-pyrrolo[2,3-b]pyridin-5-yl)-8-[pyrrolidin-2-yl]-3,4-dihydroisoquinolin-2(1H)-yl]methanone] | 0.25 | 170
Cc1c[nH]c2ncc(-c3cc4c(c(C5COC(N)=N5)c3)COCC4)cc12 (stereo not shown) [Compound Z243, 4-[6-(3-methyl-1H-pyrrolo[2,3-b]pyridin-5-yl)isochroman-8-yl]-4,5-dihydrooxazol-2-amine] | 16.5 | 2510
CNC(c1ccccc1)c1cc(-c2cnc3[nH]cc(C)c3c2)cc2c1COCC2 (single isomer, unassigned) [Compound Z234-2] | > 1000 | 
Cc1c[nH]c2ncc(-c3cc4c(c([C@@H]5CCCN5)c3)CN(C(=O)c3cnn(C(F)F)c3)CC4)cc12 [Compound Z336, (S)-(1-(difluoromethyl)-1H-pyrazol-4-yl)-[6-(3-methyl-1H-pyrrolo[2,3-b]pyridin-5-yl)-8-[pyrrolidin-2-yl]-3,4-dihydroisoquinolin-2(1H)-yl]methanone] | 0.36 | 174
Cc1c[nH]c2ncc(-c3cc4c(c([C@@H]5CCCN5)c3)CCN(C(=O)C(C)(C)O)C4)cc12 [Compound Z301, (S)-2-hydroxy-2-methyl-1-(7-(3-methyl-11H-pyrrolo[2,3-b]pyridin-5-yl)-5-(pyrrolidin-2-yl)-3,4-dihydroisoquinolin-2(1H)-yl)propan-1-one] | 0.61 | 254
Cc1cc(C(=O)N2CCc3cc(-c4cnc5[nH]cc(C)c5c4)cc([C@@H]4CCCN4)c3C2)ncn1 [Compound Z331, (S)-(6-(3-methyl-1H-pyrrolo[2,3-b]pyridin-5-yl)-8-(pyrrolidin-2-yl)-3,4-dihydroisoquinolin-2(1H)-yl) (6-methylpyrimidin-4-yl)methanone] | 0.7 | 174
Cc1c[nH]c2ncc(-c3cc([C@@H]4CCCN4)c4cnccc4c3)cc12 (single isomer, unassigned) [Compound Z3-1] | 231 | > 10000
c1cn2ccc(-c3c[nH]c4ncc(-c5cc6c(c([C@@H]7CCCN7)c5)COCC6)cc34)cc2n1 [Compound Z323] | 0.49 | 204
COCC(=O)N1CCc2cc(-c3cnc4[nH]cc(C(C)C)c4c3)cc([C@@H]3CCCN3)c2C1 [Compound Z404] | 0.32 | 113
COC(=O)N1CCc2cc(-c3cnc4[nH]cc(C)c4c3)cc([C@@H]3CCCN3)c2C1 [Compound Z34-1] | 0.55 | 265
Cc1c[nH]c2ncc(-c3cc4c(c([C@@H]5CCCN5)c3)CN(C(=O)[C@H]3CCOC3)CC4)cc12 [Compound Z219-2, (S)-(6-(3-methyl-1H-pyrrolo[2,3-b]pyridin-5-yl)-8-(pyrrolidin-2-yl)-3,4-dihydroisoquinolin-2(1H)-yl) ((S)-tetrahydrofuran-3-yl)methanone] | 0.35 | 122
Cc1c[nH]c2ncc(-c3cc4c(c([C@@H]5COCCN5)c3)CN(C(=O)[C@](C)(O)C(F)(F)F)CC4)cc12 (single isomer, unassigned) [Compound Z309-1] | 0.58 | 
Cc1c[nH]c2ncc(-c3cc4c(c(CN5CCOCC5)c3)COCC4)cc12 [Compound Z115, 4-((6-(3-methyl-1H-pyrrolo[2,3-b]pyridin-5-yl)isochroman-8-yl)methyl)morpholine] | 257 | 

Compound | IC50 [1] [nM] | IC50 [2] [nM]
CC(=O)N1CCc2cc(-c3cnc4[nH]cc(C)c4c3)cc([C@H]3COCCN3)c2C1 (single isomer, unassigned) [Compound Z119-2] | 90 | 
Cc1c[nH]c2ncc(-c3cc4c(c(N5CCC[C@H]5CO)c3)COCC4)cc12 [Compound Z116-2, (S)-(1-(6-(3-methyl-1H-pyrrolo[2,3-b]pyridin-5-yl)isochroman-8-yl)pyrrolidin-2-yl)methanol] | > 1000 | 
Cc1c[nH]c2ncc(-c3cc4c(c(N5CCC[C@@H]5CO)c3)COCC4)cc12 [Compound Z116-1, (R)-(1-(6-(3-methyl-1H-pyrrolo[2,3-b]pyridin-5-yl)isochroman-8-yl)pyrrolidin-2-yl)methanol] | 843 | 
Cc1c[nH]c2ncc(-c3cc4c(c([C@@H]5CCCN5)c3)CN(c3ccccn3)CC4)cc12 [Compound Z128, (S)-6-(3-methyl-1H-pyrrolo[2,3-b]pyridin-5-yl)-2-(pyridin-2-yl)-8-(pyrrolidin-2-yl)-1,2,3,4-tetrahydroisoquinoline] | 168 | 
Nc1ncc(-c2cc3c(c([C@H]4CCCN4)c2)COCC3)cc1-c1cn[nH]c1 (single isomer, unassigned) [Compound Z93-1] | 163 | 
Cc1c[nH]c2ncc(-c3cc4c(c([C@@H]5CCCN5)c3)CN(C(=O)N3C5CCC3COC5)CC4)cc12 [Compound Z388, (3-oxa-8-azabicyclo[3.2.1]octan-8-yl)(6-(3-methyl-1H-pyrrolo[2,3-b]pyridin-5-yl)-8-((S)-pyrrolidin-2-yl)-3,4-dihydroisoquinolin-2(1H)-yl)methanone] |  | 43.1
Cc1cn(C2CC2)nc1C(=O)N1CCc2cc(-c3cnc4[nH]cc(C)c4c3)cc([C@@H]3CCCN3)c2C1 [Compound Z342, (S)-(1-cyclopropyl-4-methyl-1H-pyrazol-3-yl)-[6-(3-methyl-1H-pyrrolo[2,3-b]pyridin-5-yl)-8-[pyrrolidin-2-yl]-3,4-dihydro-2(1H)-isoquinolin-yl]methanone] |  | 271
Nc1ncc(-c2cc3c(c([C@@H]4CCCN4)c2)COCC3)cc1-c1nncs1 [Compound Z239, 5-[8-[(S)-pyrrolidin-2-yl]isochroman-6-yl]-3-(1,3,4-thiadiazol-2-yl)pyridin-2-amine] |  | 239
CC(C)c1c[nH]c2ncc(-c3cc([C@H]4CCCN4)c4cnccc4c3)cc12 (single isomer, unassigned) [Compound Z95-1] | 18.4 | 
Cc1c[nH]c2ncc(-c3cc4c(c([C@H]5CCCN5)c3)COCC4)cc12 (single isomer, unassigned) [Compound Z97-1] | 120 | 
Cc1c[nH]c2ncc(-c3cc4c(c(C5CC6(CC6)CN5)c3)COCC4)cc12 (stereo not shown) [Compound Z240-1, 5-(8-(5-azaspiro[2.4]heptan-6-yl)isochroman-6-yl)-3-methyl-1H-pyrrolo[2,3-b]pyridine] |  | 770
Cc1c[nH]c2ncc(-c3cc4c(c([C@@H]5CCCN5)c3)CN(C(=O)c3cnn(CCO)c3)CC4)cc12 [Compound Z281, (S)-(1-(2-hydroxyethyl)-1H-pyrazol-4-yl)(6-(3-methyl-1H-pyrrolo[2,3-b]pyridin-5-yl)-8-(pyrrolidin-2-yl)-3,4-dihydroisoquinolin-2(1H)-yl)methanone] |  | 2030
N#CCc1c[nH]c2ncc(-c3cc4c(c([C@H]5CCCN5)c3)COCC4)cc12 (single isomer, unassigned) [Compound Z101-1] | 42.7 | 
Cc1cn(C2CC2)nc1C(=O)N1CCc2cc(-c3cnc4[nH]cc(C)c4c3)cc([C@@H]3CCCN3)c2C1 [Compound Z347, (S)-(1-cyclopropyl-4-methyl-1H-pyrazol-3-yl)-[6-(3-methyl-1H-pyrrolo[2,3-b]pyridin-5-yl)-8-[pyrrolidin-2-yl]-3,4-dihydro-1H-isoquinolin-2-yl]methanone] |  | 319
CNC(c1ccccc1)c1cc(-c2cnc3[nH]cc(C)c3c2)cc2c1COCC2 (single isomer, unassigned) [Compound Z234-1] | 154 | 
Cc1c[nH]c2ncc(-c3cc4c(c([C@@H]5CCCN5)c3)CN(C(=O)Nc3cn[nH]c3)C4)cc12 [Compound Z385] |  | 3.3
Cc1c[nH]c2ncc(-c3cc4c(c([C@@H]5CC6(CC6)CN5)c3)COCC4)cc12 [Compound Z240] | 2.28 | 
